Experimental data taken from the NIST ThermoML archive (doi:10.1021/je034173q).

How the values were obtained:
[1] = molar heat capacity at constant pressure; conditions: 101.33 kPa, Liquid, Small sample (50 mg) DSC
[2] = Liquid, Ebulliometric method (Recirculating still)

O=C1OCC(CO)O1 (centres undefined) [glycerine carbonate]
Conditions | molar heat capacity at constant pressure [J/K/mol] | vapor or sublimation pressure [kPa]
[1], 283.15 K | 211.38 | –
[1], 293.15 K | 213.74 | –
[1], 303.15 K | 214.92 | –
[1], 313.15 K | 216.1 | –
[1], 323.15 K | 217.28 | –
[1], 333.15 K | 218.46 | –
[1], 343.15 K | 220.82 | –
[1], 353.15 K | 223.19 | –
[1], 363.15 K | 225.55 | –
[1], 373.15 K | 226.73 | –
[2], 429.91 K | – | 0.26
[2], 432.47 K | – | 0.3
[2], 434.39 K | – | 0.33
[2], 435.94 K | – | 0.36
[2], 438.9 K | – | 0.41
[2], 447.48 K | – | 0.62
[2], 449.41 K | – | 0.68
[2], 452.48 K | – | 0.78
[2], 455.61 K | – | 0.9

CC1COC(=O)O1 (centres undefined) [4-methyl-1,3-dioxolan-2-one]
Conditions | molar heat capacity at constant pressure [J/K/mol] | vapor or sublimation pressure [kPa]
[1], 303.15 K | 170.49 | –
[1], 313.15 K | 172.53 | –
[1], 323.15 K | 174.57 | –
[1], 333.15 K | 176.61 | –
[1], 343.15 K | 178.66 | –
[1], 353.15 K | 180.7 | –
[1], 363.15 K | 183.76 | –
[1], 373.15 K | 185.8 | –
[1], 383.15 K | 188.86 | –
[1], 393.15 K | 190.91 | –
[2], 459.85 K | – | 24.21
[2], 465.35 K | – | 28.46
[2], 468.45 K | – | 31.24
[2], 471.75 K | – | 34.04
[2], 475.85 K | – | 38.09
[2], 478.35 K | – | 40.81
[2], 482.25 K | – | 45.44
[2], 485.05 K | – | 49.16
[2], 491.25 K | – | 57.38
[2], 494.25 K | – | 61.83
[2], 496.95 K | – | 66.33
[2], 499.45 K | – | 70.45
[2], 501.25 K | – | 73.46
[2], 504.05 K | – | 78.67
[2], 506.65 K | – | 83.64
[2], 508.15 K | – | 86.64
[2], 509.75 K | – | 89.87
[2], 511.15 K | – | 92.66
[2], 513.25 K | – | 97.17

O=C1OCCO1 [ethylene carbonate]
Conditions | molar heat capacity at constant pressure [J/K/mol] | vapor or sublimation pressure [kPa]
[1], 383.15 K | 155.87 | –
[1], 388.15 K | 156.75 | –
[1], 393.15 K | 157.63 | –
[1], 398.15 K | 158.51 | –
[2], 451.58 K | – | 15.19
[2], 456.04 K | – | 17.52
[2], 460.15 K | – | 19.94
[2], 466.22 K | – | 24.23
[2], 487.1 K | – | 44.69
[2], 493.67 K | – | 53.59
[2], 500.01 K | – | 63.34
[2], 505.5 K | – | 73.45

CCC1COC(=O)O1 (centres undefined) [1,2-butylene carbonate]
Conditions | molar heat capacity at constant pressure [J/K/mol] | vapor or sublimation pressure [kPa]
[1], 283.15 K | 192.75 | –
[1], 293.15 K | 195.07 | –
[1], 303.15 K | 197.4 | –
[1], 313.15 K | 199.72 | –
[1], 323.15 K | 202.04 | –
[1], 333.15 K | 205.52 | –
[1], 343.15 K | 207.85 | –
[1], 353.15 K | 210.17 | –
[1], 363.15 K | 212.49 | –
[1], 373.15 K | 214.81 | –
[2], 397.25 K | – | 1.9
[2], 402.93 K | – | 2.44
[2], 409.65 K | – | 3.23
[2], 417.69 K | – | 4.45
[2], 424.67 K | – | 5.8
[2], 432.03 K | – | 7.57
[2], 438.31 K | – | 9.43
[2], 445.57 K | – | 12.03
[2], 453.2 K | – | 15.39
[2], 460.53 K | – | 19.28
[2], 467.68 K | – | 23.89
[2], 474.59 K | – | 29.14
[2], 481.93 K | – | 35.77
[2], 488.3 K | – | 42.38
[2], 495.04 K | – | 50.52
[2], 501.76 K | – | 59.91
[2], 508.33 K | – | 70.54
[2], 515.54 K | – | 83.68
[2], 522.74 K | – | 99.08
